Values quoted from earlier work as cited in US20150119272A1, “DOSE-RESPONSE MEDICAL OUTCOME MODEL PREDICTOR SYSTEM AND METHOD” (ROYAL COLLEGE OF SURGEONS IN IRELAND, priority 2012, published 2015).

Legend:
Bcl-(X)L = Bcl-(X)L (Homo sapiens, UniProt Q07817); settings: binding to Bcl-(X)L; taken from literature (Lessene et al. 2008)
Mcl-1 = Mcl-1 (Homo sapiens, UniProt Q07820); settings: binding to Mcl-1; taken from literature (Lessene et al. 2008)
Sequence of Mcl-1 (Q07820 whole entry, species assumed): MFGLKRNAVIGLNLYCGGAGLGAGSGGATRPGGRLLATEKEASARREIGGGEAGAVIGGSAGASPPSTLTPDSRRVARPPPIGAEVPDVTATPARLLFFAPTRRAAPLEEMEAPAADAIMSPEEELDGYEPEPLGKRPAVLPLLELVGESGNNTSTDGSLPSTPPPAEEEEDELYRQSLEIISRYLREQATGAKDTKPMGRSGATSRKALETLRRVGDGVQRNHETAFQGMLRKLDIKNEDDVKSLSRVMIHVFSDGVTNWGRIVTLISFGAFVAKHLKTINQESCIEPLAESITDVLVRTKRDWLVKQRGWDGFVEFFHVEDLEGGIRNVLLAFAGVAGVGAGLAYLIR

Sequence of Bcl-(X)L (Q07817 whole entry, species assumed): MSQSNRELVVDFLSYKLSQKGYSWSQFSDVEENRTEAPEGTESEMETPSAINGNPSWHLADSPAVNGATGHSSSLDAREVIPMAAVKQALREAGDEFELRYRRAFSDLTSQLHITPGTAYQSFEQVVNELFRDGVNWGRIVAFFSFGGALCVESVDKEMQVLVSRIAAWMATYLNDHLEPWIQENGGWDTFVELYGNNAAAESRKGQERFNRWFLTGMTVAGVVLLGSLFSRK

## Cc1cc2c(C(C)C)c(O)c(O)c(C=O)c2c(O)c1-c1c(C)cc2c(C(C)C)c(O)c(O)c(C=O)c2c1O [Gossypol]
Bcl-(X)L
  Kd: 660 nM
Mcl-1
  Kd: 25 nM
